Measured values as given in US9980943B2, “Methods of treating muscular dystrophy” (BOARD OF REGENTS OF THE NEVADA SYSTEM OF HIGHER EDUCATION, …, priority 2013, dated 2018).
Where two headings read alike, the source gives them in different places.

Assays:
Assay type in all cases: cell-based, mouse
[1] = test system: α7 integrin (LacZ reporter in α7βgal+/− myoblasts); assay: Myoblast α7+/LacZ integrin FDG assay (Burkin assay in myoblasts, 96-well); details: α7+/LacZ myoblasts, 96-well; for fold induction at 0.5 µM / fold induction at 1 µM / fold induction at 5 µM / fold induction at 10 µM / fold induction at 20 µM / fold induction at 40 µM: Mus musculus, Myoblast, 48 h
[2] = test system: α7 integrin (LacZ reporter in α7+/LacZ myotubes); assay: Myotube α7 integrin FDG assay (Burkin assay in myotubes, 96-well); details: myotubes; for fold induction at 0.5 µM / fold induction at 1 µM / fold induction at 5 µM / fold induction at 10 µM / fold induction at 20 µM / fold induction at 40 µM: Mus musculus, Myotube
[3] = test system: β-galactosidase in CMV-LacZ C2C12 myotubes; assay: CMV-LacZ secondary screen in C2C12 myotubes (β-Gal stabilizing assay); details: for fold induction at 5 µM / fold induction at 10 µM / fold induction at 20 µM / fold induction at 40 µM: Mus musculus; for fold induction at 5 µM: C2C12, read-out: CMV-LACZ in Myotubes, signal relative to DMSO, 5 uM; for fold induction at 5 µM / fold induction at 10 µM / fold induction at 20 µM / fold induction at 40 µM / CMV-LACZ in Myotubes, signal relative to DMSO: C2C12 CMV-LacZ myotubes, fold relative to DMSO; for fold induction at 10 µM: C2C12, read-out: CMV-LACZ in Myotubes, signal relative to DMSO, 10 uM; for fold induction at 20 µM: C2C12, read-out: CMV-LACZ in Myotubes, signal relative to DMSO, 20 uM; for fold induction at 40 µM: C2C12, read-out: CMV-LACZ in Myotubes, signal relative to DMSO, 40 uM; for CMV-LACZ in Myotubes (β-galactosidase activity relative to DMSO): CMV-LacZ C2C12 myotubes, 96-well format
Outline: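 Stable CMV-LacZ C2C12 clone; six-point curve 0.5–40 μM; duplicates.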

[4] = 0.5 uM, read-out: Burkin Assay in Myoblasts, signal relative to DMSO
[5] = 1 uM, read-out: Burkin Assay in Myoblasts, signal relative to DMSO
[6] = 5 uM, read-out: Burkin Assay in Myoblasts, signal relative to DMSO
[7] = 10 uM, read-out: Burkin Assay in Myoblasts, signal relative to DMSO
[8] = 20 uM, read-out: Burkin Assay in Myoblasts, signal relative to DMSO
[9] = 40 uM, read-out: Burkin Assay in Myoblasts, signal relative to DMSO
[10] = 0.5 uM, read-out: Burkin Assay in Myotubes, α7 integrin LacZ reporter signal relative to DMSO
[11] = 1 uM, read-out: Burkin Assay in Myotubes, α7 integrin LacZ reporter signal relative to DMSO
[12] = 5 uM, read-out: Burkin Assay in Myotubes, α7 integrin LacZ reporter signal relative to DMSO
[13] = 10 uM, read-out: Burkin Assay in Myotubes, α7 integrin LacZ reporter signal relative to DMSO
[14] = 20 uM, read-out: Burkin Assay in Myotubes, α7 integrin LacZ reporter signal relative to DMSO
[15] = 40 uM, read-out: Burkin Assay in Myotubes, α7 integrin LacZ reporter signal relative to DMSO

Row | Compound | fold induction at 5 µM [3] | fold induction at 10 µM [3] | fold induction at 20 µM [3] | fold induction at 40 µM [3] | Burkin Assay in Myoblasts, value relative to DMSO ([1]; 0.5 uM) | Burkin Assay in Myoblasts, value relative to DMSO ([1]; 1 uM) | Burkin Assay in Myoblasts, value relative to DMSO ([1]; 5 uM) | Burkin Assay in Myoblasts, value relative to DMSO ([1]; 10 uM) | Burkin Assay in Myoblasts, value relative to DMSO ([1]; 20 uM) | Burkin Assay in Myoblasts, value relative to DMSO ([1]; 40 uM) | Burkin Assay in Myotubes (signal relative to DMSO) ([2]; 0.5 uM) | Burkin Assay in Myotubes (signal relative to DMSO) ([2]; 1 uM) | Burkin Assay in Myotubes (signal relative to DMSO) ([2]; 5 uM) | Burkin Assay in Myotubes (signal relative to DMSO) ([2]; 10 uM) | Burkin Assay in Myotubes (signal relative to DMSO) ([2]; 20 uM) | Burkin Assay in Myotubes (signal relative to DMSO) ([2]; 40 uM) | CMV-LACZ in Myotubes, signal relative to DMSO ([3]; 5 uM) | CMV-LACZ in Myotubes, signal relative to DMSO ([3]; 10 uM) | CMV-LACZ in Myotubes, signal relative to DMSO ([3]; 20 uM) | CMV-LACZ in Myotubes, signal relative to DMSO ([3]; 40 uM) | further results
1 | COc1ccc(Nc2ncnc3ccc(C)cc23)cc1 [MLS001212498-01] | 0.85 | 0.784 | 0.749 | 0.848 |  |  |  |  |  |  |  |  |  |  |  |  |  |  |  |  | fold induction at 0.5 µM [1, 4]: 1.05; fold induction at 1 µM [1, 5]: 1.2; fold induction at 5 µM [1, 6]: 1.18; fold induction at 10 µM [1, 7]: 1.31; fold induction at 20 µM [1, 8]: 1.29; fold induction at 40 µM [1, 9]: 1.4; fold induction at 0.5 µM [2, 10]: 0.941; fold induction at 1 µM [2, 11]: 1.12; fold induction at 5 µM [2, 12]: 1.11; fold induction at 10 µM [2, 13]: 1.34; fold induction at 20 µM [2, 14]: 1.16; fold induction at 40 µM [2, 15]: 1.16
2 | COc1ccc(-n2c(C)c(C(C)=O)c3cc(OC(C)=O)ccc32)cc1 [MLS001212998-01] | 0.78 | 0.908 | 0.972 | 0.783 |  |  |  |  |  |  |  |  |  |  |  |  |  |  |  |  | fold induction at 0.5 µM [1, 4]: 1.19; fold induction at 1 µM [1, 5]: 1.2; fold induction at 5 µM [1, 6]: 1.45; fold induction at 10 µM [1, 7]: 1.54; fold induction at 20 µM [1, 8]: 1.36; fold induction at 40 µM [1, 9]: 1.3; fold induction at 0.5 µM [2, 10]: 1.14; fold induction at 1 µM [2, 11]: 1.1; fold induction at 5 µM [2, 12]: 1.46; fold induction at 10 µM [2, 13]: 1.45; fold induction at 20 µM [2, 14]: 1.45; fold induction at 40 µM [2, 15]: 1.05
3 | NS(=O)(=O)c1ccc(NC(=O)c2cc(-c3ccccc3O)n[nH]2)cc1 [MLS001214443-01] |  |  |  |  | 0.9203 | 0.8074 | 0.7787 | 0.8173 | 0.9132 | 0.9313 | 0.8262 | 0.9018 | 0.9442 | 1.193 | 1.154 | 1.083 |  |  |  |  | CMV-LACZ in Myotubes (β-galactosidase activity relative to DMSO) ([3]; 5 uM): 0.9737; CMV-LACZ in Myotubes (β-galactosidase activity relative to DMSO) ([3]; 10 uM): 1.072; CMV-LACZ in Myotubes (β-galactosidase activity relative to DMSO) ([3]; 20 uM): 0.9507; CMV-LACZ in Myotubes (β-galactosidase activity relative to DMSO) ([3]; 40 uM): 0.9022
4 | CC(=O)Nc1c(-c2ccc(Cl)cc2)c(=O)c2ccccc2n1C [MLS001214461-01] |  |  |  |  | 1.064 | 0.9241 | 0.8964 | 0.8123 | 0.8472 | 0.767 | 1.207 | 0.9586 | 1.072 | 0.9457 | 1.087 | 0.8844 | 0.8137 | 0.9363 | 0.9167 | 0.9566 | 
5 | O=C(NCCc1ccc(F)cc1)N[C@@H](Cc1ccccc1)C(=O)O [MLS001214704-01] | 0.885 | 1.28 | 0.933 | 0.914 |  |  |  |  |  |  |  |  |  |  |  |  |  |  |  |  | fold induction at 0.5 µM ([1]; 0.5 uM, read-out: Burkin Assay in Myoblasts, value relative to DMSO): 1.11; fold induction at 1 µM ([1]; 1 uM, read-out: Burkin Assay in Myoblasts, value relative to DMSO): 1.3; fold induction at 5 µM ([1]; 5 uM, read-out: Burkin Assay in Myoblasts, value relative to DMSO): 1.08; fold induction at 10 µM ([1]; 10 uM, read-out: Burkin Assay in Myoblasts, value relative to DMSO): 1.19; fold induction at 20 µM ([1]; 20 uM, read-out: Burkin Assay in Myoblasts, value relative to DMSO): 0.985; fold induction at 40 µM ([1]; 40 uM, read-out: Burkin Assay in Myoblasts, value relative to DMSO): 1.05; fold induction at 0.5 µM ([2]; 0.5 uM, read-out: Burkin Assay in Myotubes (signal relative to DMSO)): 0.976; fold induction at 1 µM ([2]; 1 uM, read-out: Burkin Assay in Myotubes (signal relative to DMSO)): 1.11; fold induction at 5 µM ([2]; 5 uM, read-out: Burkin Assay in Myotubes (signal relative to DMSO)): 1.07; fold induction at 10 µM ([2]; 10 uM, read-out: Burkin Assay in Myotubes (signal relative to DMSO)): 1.11; fold induction at 20 µM ([2]; 20 uM, read-out: Burkin Assay in Myotubes (signal relative to DMSO)): 1.06; fold induction at 40 µM ([2]; 40 uM, read-out: Burkin Assay in Myotubes (signal relative to DMSO)): 1.16
6 | COc1ccc(-n2c(SCC(=O)Nc3cccc(C(=O)O)c3)nnc2-c2ccco2)cc1 [MLS001215742-01] |  |  |  |  | 0.887 | 0.926 | 1.04 | 1.105 | 0.7682 | 0.8165 | 1.02 | 1.104 | 0.9803 | 1.155 | 0.8384 | 0.9687 |  |  |  |  | CMV-LACZ in Myotubes (β-galactosidase activity relative to DMSO) ([3]; 5 uM): 1.026; CMV-LACZ in Myotubes (β-galactosidase activity relative to DMSO) ([3]; 10 uM): 1.1034; CMV-LACZ in Myotubes (β-galactosidase activity relative to DMSO) ([3]; 20 uM): 0.9254; CMV-LACZ in Myotubes (β-galactosidase activity relative to DMSO) ([3]; 40 uM): 0.9851
7 | O=C(O)c1cc(N=Cc2c(O)c3ccccc3oc2=O)ccc1O [MLS001216260-01] |  |  |  |  |  |  |  |  |  |  |  |  |  |  |  |  | 0.8516 | 1.031 | 1.09 | 0.8367 | Burkin Assay in Myoblasts, signal relative to DMSO ([1]; 0.5 uM): 1.0145; Burkin Assay in Myoblasts, signal relative to DMSO ([1]; 1 uM): 0.984; Burkin Assay in Myoblasts, signal relative to DMSO ([1]; 5 uM): 0.8531; Burkin Assay in Myoblasts, signal relative to DMSO ([1]; 10 uM): 0.8798; Burkin Assay in Myoblasts, signal relative to DMSO ([1]; 20 uM): 0.8781; Burkin Assay in Myoblasts, signal relative to DMSO ([1]; 40 uM): 0.8933; Burkin Assay in Myotubes, α7 integrin LacZ reporter signal relative to DMSO ([2]; 0.5 uM): 1.005; Burkin Assay in Myotubes, α7 integrin LacZ reporter signal relative to DMSO ([2]; 1 uM): 0.9893; Burkin Assay in Myotubes, α7 integrin LacZ reporter signal relative to DMSO ([2]; 5 uM): 1.16; Burkin Assay in Myotubes, α7 integrin LacZ reporter signal relative to DMSO ([2]; 10 uM): 1.06; Burkin Assay in Myotubes, α7 integrin LacZ reporter signal relative to DMSO ([2]; 20 uM): 0.9144; Burkin Assay in Myotubes, α7 integrin LacZ reporter signal relative to DMSO ([2]; 40 uM): 0.9348
8 | COc1cc(CNCc2ccc(C(=O)O)cc2)ccc1OCc1ccc(F)cc1.Cl [MLS001216405-01] |  |  |  |  | 1.132 | 0.9785 | 0.9945 | 0.9208 | 0.9202 | 0.7667 | 1.128 | 0.9927 | 1.124 | 0.9642 | 0.9387 | 0.8706 | 0.9192 | 0.8008 | 1.345 | 1.08 | 
